Measured values as given in patent US12144351B2, “Herbicidal mixtures comprising L-glufosinate and their use in corn cultures” (priority 2017, dated 2024).

Assays:
Assay in all cases: Post emergence treatment, greenhouse pot test, herbicidal activity
Type in all cases: in vivo
Conditions in all cases: scale 0 to 100
AVEFA (Avena fatua) = system: AVEFA (Avena fatua)
Protocol: (§1) The analysis of synergism or antagonism between the mixtures or compositions was determined using Colby's equation.
(§2) The culture containers used were plastic flowerpots containing loamy sand with approximately 3.0% of humus as the substrate. The seeds of the test plants were sown separately for each species and/or resistant biotype. […] The containers were irrigated gently to promote germination and growth and subsequently covered with transparent plastic hoods until the plants had rooted. This cover caused uniform germination of the test plants, unless this had been impaired by the active ingredients. […] For this purpose, the test plants were either sown directly and grown in the same containers, or they were first grown separately as seedlings and transplanted into the test containers a few days prior to treatment. Depending on the species, the plants were kept at 10-25° C. or 20-35° C., respectively. The test period extended to 20 days after treatment. During this time, the plants were tended, and their response to the individual treatments was evaluated. The evaluation was carried out by using a scale from 0 to 100. 100 means no emergence of the plants or complete destruction of at least the above-ground parts, and 0 means no damage, or normal course of growth. Data shown are the mean of two replications.

SETVI (Setaria viridis) = system: SETVI (Setaria viridis)
Protocol: as §1, §2

KCHSC (Kochia scoparia) = system: KCHSC (Kochia scoparia)
Protocol: as §1, §2

[1] = system: ABUTH (Abutilon theophrasti)
Protocol: as §1, §2

[2] = system: COMBE (Commelina benghalensis)
Protocol: as §1, §2

[3] = system: CHEAL (Chenopodium album)
Protocol: as §1, §2

[4] = system: ECHCG (Echinochloa crus-galli)
Protocol: as §1, §2

[5] = 2,4-D as dimethylammonium salt 70 g ai/ha
[6] = 2,4-D as dimethylammonium salt 140 g ai/ha

Q: For `CNC.O=C(O)COc1ccc(Cl)cc1Cl` [2,4-D as dimethylammonium salt, 2,4-D dimethylammonium salt], which “Herbicidal activity against AVEFA, Found” value (AVEFA (Avena fatua); [5]) is on record?
A: The value was 0.

Q: And the “Herbicidal activity against AVEFA, Found” value (AVEFA (Avena fatua); [6])?
A: Its value is 0.

Q: And the “Herbicidal activity against SETVI, Found” value (SETVI (Setaria viridis); [5])?
A: Its value is 0.

Q: What about the “Herbicidal activity against SETVI, Found” value (SETVI (Setaria viridis); [6]) of the same compound?
A: The value was 0.

Q: For `COC[C@H](C)N(C(=O)CCl)c1c(C)csc1C` [Dimethenamid-P], which “Herbicidal activity against KCHSC, Found” value (KCHSC (Kochia scoparia); Dimethenamid-P 500 g ai/ha) is on record?
A: Its value is 0.

Q: And the “Herbicidal activity against KCHSC, Found” value (KCHSC (Kochia scoparia); Dimethenamid-P 1000 g ai/ha)?
A: Its value is 70.

Q: With `CP(=O)(O)CC[C@H](N)C(=O)O` [L-Glufosinate, (2S)-2-amino-4-[hydroxy(methyl)phosphinoyl]butyric acid] as the compound, how does the “Herbicidal activity against AVEFA, Found” value (AVEFA (Avena fatua); L-Glufosinate 75 g ai/ha) read?
A: Its value is 0.

Q: What about the “Herbicidal activity against AVEFA, Found” value (AVEFA (Avena fatua); L-Glufosinate 150 g ai/ha) of the same compound?
A: Its value is 0.

Q: And the “Herbicidal activity against ABUTH, Found” value ([1]; L-Glufosinate 75 g ai/ha)?
A: The value was 0.

Q: And the “Herbicidal activity against ABUTH, Found” value ([1]; L-Glufosinate 150 g ai/ha)?
A: Its value is 55.

Q: What about the “Herbicidal activity against ABUTH, Found” value ([1]; L-Glufosinate 200 g ai/ha) of the same compound?
A: The value was 65.

Q: What about the “Herbicidal activity against COMBE, Found” value ([2]; L-Glufosinate 100 g ai/ha) of the same compound?
A: The value was 0.

Q: With `CCOCCN(C(=O)CCl)C(=C(C)C)c1ccccc1` [Pethoxamid, pethoxamid] as the compound, how does the “Herbicidal activity against AVEFA, Found” value (AVEFA (Avena fatua); Pethoxamid 50 g ai/ha) read?
A: The value was 0.

Q: And the “Herbicidal activity against AVEFA, Found” value (AVEFA (Avena fatua); Pethoxamid 100 g ai/ha)?
A: Its value is 0.

Q: And the “Herbicidal activity against ABUTH, Found” value ([1]; Pethoxamid 50 g ai/ha)?
A: The value was 0.

Q: And the “Herbicidal activity against ABUTH, Found” value ([1]; Pethoxamid 100 g ai/ha)?
A: Its value is 0.

Q: Which “Herbicidal activity against CHEAL, Found” value ([3]; S-Metolachlor 500 g ai/ha) does the source give for `CCc1cccc(C)c1N(C(=O)CCl)[C@@H](C)COC` [S-Metolachlor, S-metolachlor] here?
A: The value was 20.

Q: And the “Herbicidal activity against CHEAL, Found” value ([3]; S-Metolachlor 1000 g ai/ha)?
A: The value was 75.

Q: For `C#CCN1C(=O)C(F)(F)Oc2cc(F)c(-n3c(=O)n(C)c(=S)n(C)c3=O)cc21` [Trifludimoxazin, trifludimoxazin], which “Herbicidal activity against ECHCG, Found” value ([4]; Trifludimoxazin 0.25 g ai/ha) is on record?
A: Its value is 10.

Q: With “Dicamba dimethylammonium salt [Dicamba as dimethylammonium salt]” as the compound, how does the “Herbicidal activity against SETVI, Found” value (SETVI (Setaria viridis); Dicamba as dimethylammonium salt 35 g ai/ha) read?
A: Its value is 0.

Q: What about the “Herbicidal activity against SETVI, Found” value (SETVI (Setaria viridis); Dicamba as dimethylammonium salt 70 g ai/ha) of the same compound?
A: Its value is 0.

Q: And the “Herbicidal activity against SETVI, Found” value (SETVI (Setaria viridis); Dicamba as dimethylammonium salt 140 g ai/ha)?
A: The value was 30.

Q: How did the “Herbicidal activity against ECHCG, Found” value ([4]; Bicyclopyrone 1 g ai/ha) turn out when bicyclopyrone was run?
A: The value was 0.

Q: And the “Herbicidal activity against ECHCG, Found” value ([4]; Bicyclopyrone 2 g ai/ha)?
A: The value was 0.

Q: And the “Herbicidal activity against COMBE, Found” value ([2]; Bicyclopyrone 1 g ai/ha)?
A: The value was 0.

Q: And the “Herbicidal activity against COMBE, Found” value ([2]; Bicyclopyrone 2 g ai/ha)?
A: The value was 10.
